Laboratory results from patent US20250179088A9 (ZYMEWORKS BC INC., priority 2020, published 2025).

Legend:
[1] = tested on: PBMCs; test: PBMC assay, IL-6 release (HTRF); format: cell-based; details: PBMCs from healthy donors, overnight, IL-6 induction by HTRF, average of quadruplicate
Experimental: Whole peripheral blood was obtained from healthy donors. PBMCs were isolated from peripheral blood by density gradient centrifugation. […] The plasma layer containing PBMCs was poured into a new tube and washed twice. Isolated PBMCs were either used fresh or thawed from previously frozen. 1×10^5 PBMCs were cultured with titrating concentrations of compounds of Formula I overnight followed by assaying for cytokines by homogeneous time resolved fluorescence (HTRF).

[2] = target: T1, TLR7 (Homo sapiens, UniProt Q9NYK1); test: Reporter gene assay, HEK-Blue TLR7 reporter cells (SEAP)
T1 sequence (Q9NYK1 27-1049): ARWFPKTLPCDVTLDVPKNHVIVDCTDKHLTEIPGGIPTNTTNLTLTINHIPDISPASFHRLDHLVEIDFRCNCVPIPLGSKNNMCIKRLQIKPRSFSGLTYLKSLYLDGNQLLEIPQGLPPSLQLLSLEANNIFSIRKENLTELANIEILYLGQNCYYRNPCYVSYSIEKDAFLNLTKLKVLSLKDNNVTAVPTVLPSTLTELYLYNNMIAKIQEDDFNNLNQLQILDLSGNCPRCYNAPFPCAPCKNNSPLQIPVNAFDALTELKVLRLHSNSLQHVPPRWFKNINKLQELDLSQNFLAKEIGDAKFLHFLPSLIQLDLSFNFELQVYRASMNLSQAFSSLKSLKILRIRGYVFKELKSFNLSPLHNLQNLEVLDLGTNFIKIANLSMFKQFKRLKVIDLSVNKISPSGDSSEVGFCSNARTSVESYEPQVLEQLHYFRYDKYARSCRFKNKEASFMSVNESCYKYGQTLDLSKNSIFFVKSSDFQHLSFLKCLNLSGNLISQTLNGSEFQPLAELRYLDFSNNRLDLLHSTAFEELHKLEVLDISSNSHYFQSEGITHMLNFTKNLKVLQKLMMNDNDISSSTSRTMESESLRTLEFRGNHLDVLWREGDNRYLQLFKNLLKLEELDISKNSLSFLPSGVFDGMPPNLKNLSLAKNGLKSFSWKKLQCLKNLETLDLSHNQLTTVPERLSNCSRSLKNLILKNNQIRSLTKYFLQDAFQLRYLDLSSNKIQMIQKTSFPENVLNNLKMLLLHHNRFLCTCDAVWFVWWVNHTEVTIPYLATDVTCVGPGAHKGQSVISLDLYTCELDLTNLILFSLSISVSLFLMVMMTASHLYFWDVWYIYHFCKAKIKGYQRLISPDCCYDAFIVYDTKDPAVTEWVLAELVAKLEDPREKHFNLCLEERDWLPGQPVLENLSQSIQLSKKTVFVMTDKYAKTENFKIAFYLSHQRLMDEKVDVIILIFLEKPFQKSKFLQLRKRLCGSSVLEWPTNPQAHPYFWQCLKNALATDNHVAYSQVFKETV
Experimental: (§1) 3×10^4 HEK-Blue™ TLR7 or 3×10^4 TLR8 reporter cells (InvivoGen, San Diego, CA) were treated with titrated (4-fold) amounts of test compound. […] Cells were incubated overnight at 37° C. and 5% CO2, then absorbance (620 and 655 nm) was read on a Synergy™ H1 microplate reader.

[3] = target: T2, TLR8 (Homo sapiens, UniProt Q9NR97); test: Reporter gene assay, HEK-Blue TLR8 reporter cells (SEAP)
T2 sequence (Q9NR97 27-1041): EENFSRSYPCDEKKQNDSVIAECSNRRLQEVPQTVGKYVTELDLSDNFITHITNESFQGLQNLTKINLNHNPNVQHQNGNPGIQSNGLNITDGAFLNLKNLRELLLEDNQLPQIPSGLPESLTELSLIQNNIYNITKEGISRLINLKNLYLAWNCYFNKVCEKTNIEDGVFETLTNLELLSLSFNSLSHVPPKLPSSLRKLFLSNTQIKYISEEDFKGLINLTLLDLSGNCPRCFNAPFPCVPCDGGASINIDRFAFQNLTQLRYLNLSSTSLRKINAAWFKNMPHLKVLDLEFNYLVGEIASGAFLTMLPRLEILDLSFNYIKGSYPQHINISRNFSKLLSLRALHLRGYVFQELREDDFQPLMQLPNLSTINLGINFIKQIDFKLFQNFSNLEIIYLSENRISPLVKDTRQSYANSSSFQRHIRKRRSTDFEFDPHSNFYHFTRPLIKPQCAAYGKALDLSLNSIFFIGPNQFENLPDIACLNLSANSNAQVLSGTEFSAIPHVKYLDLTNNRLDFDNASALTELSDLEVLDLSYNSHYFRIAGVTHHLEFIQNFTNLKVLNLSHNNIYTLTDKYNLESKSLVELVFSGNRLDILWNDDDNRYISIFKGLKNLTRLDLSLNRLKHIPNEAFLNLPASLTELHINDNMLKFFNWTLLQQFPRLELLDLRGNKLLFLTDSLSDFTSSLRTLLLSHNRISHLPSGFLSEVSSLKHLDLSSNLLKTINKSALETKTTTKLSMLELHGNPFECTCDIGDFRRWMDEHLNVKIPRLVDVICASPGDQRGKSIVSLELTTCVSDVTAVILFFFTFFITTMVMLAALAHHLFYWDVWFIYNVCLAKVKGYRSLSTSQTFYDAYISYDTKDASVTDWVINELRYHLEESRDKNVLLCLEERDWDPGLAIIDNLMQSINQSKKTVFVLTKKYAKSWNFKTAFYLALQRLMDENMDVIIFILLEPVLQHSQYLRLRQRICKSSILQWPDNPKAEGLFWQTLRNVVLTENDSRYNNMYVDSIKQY
Experimental: as §1

SMILES	EC50 [2]	EC50 [3]	EC50 [1]
CCCCc1nc2c(N)nc3ccsc3c2n1Cc1cccc(CN2CCN(C(=O)OC(C)(C)C)CC2)c1 [Compound 196, tert-butyl 4-(3-((4-amino-2-butyl-1H-imidazo[4,5-d]thieno[3,2-b]pyridin-1-yl)methyl)benzyl)piperazine-1-carboxylate]	> 1000 nM	> 1000 nM	> 1000 nM
CCCCc1nc2c(N)nc3ccsc3c2n1Cc1cccc(CN2CCN(CCN3CCOCC3)CC2)c1 [Compound 200, 2-butyl-1-(3-((4-(2-morpholinoethyl)piperazin-1-yl)methyl)benzyl)-1H-imidazo[4,5-d]thieno[3,2-b]pyridin-4-amine]	550 nM	> 1000 nM	> 1000 nM
CCCCc1nc2c(N)nc3ccsc3c2n1Cc1cccc(CNCC(C)(C)N2CCOCC2)c1 [Compound 202, 2-butyl-1-(3-(((2-methyl-2-morpholinopropyl)amino)methyl)benzyl)-1H-imidazo[4,5-d]thieno[3,2-b]pyridin-4-amine]	330 nM	950 nM	750 nM
CCCCc1nc2c(N)nc3ccsc3c2n1Cc1cccc(CO)c1 [Compound 207, (3-((4-amino-2-butyl-1H-imidazo[4,5-d]thieno[3,2-b]pyridin-1-yl)methyl)phenyl)methanol]	480 nM	> 1000 nM	> 1000 nM
CCCCc1nc2c(N)nc3ccsc3c2n1Cc1ccccc1CNCCCN1CCN(CCCN)CC1 [Compound 215, 1-(2-(((3-(4-(3-aminopropyl)piperazin-1-yl)propyl)amino)methyl)benzyl)-2-butyl-1H-imidazo[4,5-d]thieno[3,2-b]pyridin-4-amine]	> 1000 nM	> 1000 nM	> 1000 nM
CCCCc1nc2c(N)nc3ccsc3c2n1Cc1ccccc1CN [Compound 216, 1-(2-(aminomethyl)benzyl)-2-butyl-1H-imidazo[4,5-d]thieno[3,2-b]pyridin-4-amine]	> 1000 nM	> 1000 nM	> 1000 nM
CCCCc1nc2c(N)nc3ccsc3c2n1Cc1ccccc1CN1CCN(C(=O)OC(C)(C)C)CC1 [Compound 217, tert-butyl 4-(2-((4-amino-2-butyl-1H-imidazo[4,5-d]thieno[3,2-b]pyridin-1-yl)methyl)benzyl)piperazine-1-carboxylate]	> 1000 nM	> 1000 nM	> 1000 nM
CCCCc1nc2c(N)nc3ccsc3c2n1Cc1ccccc1CN1CCNCC1 [Compound 218, 2-butyl-1-(2-(piperazin-1-ylmethyl)benzyl)-1H-imidazo[4,5-d]thieno[3,2-b]pyridin-4-amine]	> 1000 nM	> 1000 nM	> 1000 nM
CCCCc1nc2c(N)nc3ccsc3c2n1Cc1ccccc1CN1CCC(c2ccncc2)CC1 [Compound 219, 2-butyl-1-(2-((4-(pyridin-4-yl)piperidin-1-yl)methyl)benzyl)-1H-imidazo[4,5-d]thieno[3,2-b]pyridin-4-amine]	> 1000 nM	> 1000 nM	> 1000 nM
CCCCc1nc2c(N)nc3ccsc3c2n1Cc1ccccc1CNCc1cc[nH]c1 [Compound 220, 1-(2-((((1H-pyrrol-3-yl)methyl)amino)methyl)benzyl)-2-butyl-1H-imidazo[4,5-d]thieno [3,2-b]pyridin-4-amine]	> 1000 nM	> 1000 nM	> 1000 nM
CCCCc1nc2c(N)nc3ccsc3c2n1Cc1ccccc1CN(CC)CC [Compound 221, 2-butyl-1-(2-((diethylamino)methyl)benzyl)-1H-imidazo[4,5-d]thieno[3,2-b]pyridin-4-amine]	> 1000 nM	> 1000 nM	> 1000 nM

Now those with a lower EC50 [2], led by results:

EC50 [2]	EC50 [3]	SMILES	EC50 [1]
24 nM	> 1000 nM	CCCCc1nc2c(N)nc3ccsc3c2n1CCCCCN1CCNCC1 [Compound 182]	160 nM
34 nM	> 1000 nM	CCCCc1nc2c(N)nc3ccsc3c2n1CCCCCNCc1cc[nH]c1 [Compound 183, 1-(5-(((1H-pyrrol-3-yl)methyl)amino)pentyl)-2-butyl-1H-imidazo[4,5-d]thieno[3,2-b]pyridin-4-amine]	> 1000 nM
63 nM	490 nM	CCCCc1nc2c(N)nc3ccsc3c2n1Cc1cccc(CNCc2cc[nH]c2)c1 [Compound 197, 1-(3-((((1H-pyrrol-3-yl)methyl)amino)methyl)benzyl)-2-butyl-1H-imidazo[4,5-d]thieno [3,2-b]pyridin-4-amine]	290 nM
220 nM	> 1000 nM	CCCCc1nc2c(N)nc3ccsc3c2n1Cc1cccc(CN2CCC(c3ccncc3)CC2)c1 [Compound 198, 2-butyl-1-(3-((4-(pyridin-4-yl)piperidin-1-yl)methyl)benzyl)-1H-imidazo[4,5-d]thieno [3,2-b]pyridin-4-amine]	280 nM
130 nM	430 nM	CCCCc1nc2c(N)nc3ccsc3c2n1Cc1cccc(CN(CC)CC)c1 [Compound 199, 2-butyl-1-(3-((diethylamino)methyl)benzyl)-1H-imidazo[4,5-d]thieno[3,2-b]pyridin-4-amine]	330 nM
290 nM	120 nM	CCCCc1nc2c(N)nc3ccsc3c2n1Cc1cccc(CNCCCCCO)c1 [Compound 203, 5-((3-((4-amino-2-butyl-1H-imidazo[4,5-d]thieno[3,2-b]pyridin-1-yl)methyl)benzyl)amino)pentan-1-ol]	160 nM
68 nM	310 nM	CCCCc1nc2c(N)nc3ccsc3c2n1Cc1cccc(CNCc2ccc(CO)cc2)c1 [Compound 204, (4-(((3-((4-amino-2-butyl-1H-imidazo[4,5-d]thieno[3,2-b]pyridin-1-yl)methyl)benzyl)amino)methyl)phenyl)methanol]	200 nM
110 nM	190 nM	CCCCc1nc2c(N)nc3ccsc3c2n1Cc1cccc(CNCC(C)(C)O)c1 [Compound 205, 1-((3-((4-amino-2-butyl-1H-imidazo[4,5-d]thieno[3,2-b]pyridin-1-yl)methyl)benzyl)amino)-2-methylpropan-2-ol]	160 nM
280 nM	> 1000 nM	CCCCc1nc2c(N)nc3ccsc3c2n1Cc1cccc(CNN)c1 [Compound 206, 2-butyl-1-(3-(hydrazineylmethyl)benzyl)-1H-imidazo[4,5-d]thieno[3,2-b]pyridin-4-amine]	> 1000 nM
63 nM	> 1000 nM	CCCCc1nc2c(N)nc3ccsc3c2n1Cc1cccc(CN2CCNCC2)c1 [Compound 214, 2-butyl-1-(3-(piperazin-1-ylmethyl)benzyl)-1H-imidazo[4,5-d]thieno[3,2-b]pyridin-4-amine]	750 nM
